From paper PMC11744769, “Modulation of the mechanism of action of antibacterial silver N-heterocyclic carbene complexes by variation of the halide ligand” (RSC Advances, 2025)

target: T1, thioredoxin reductase (TrxR) (Escherichia coli, UniProt P0A9P4); assay: DTNB reduction kinetic assay with Trx and NADPH in lysates of treated E. coli DSM […] cells; type: cell-based
T1 construct: gene trxB
T1 sequence (P0A9P4 2-321): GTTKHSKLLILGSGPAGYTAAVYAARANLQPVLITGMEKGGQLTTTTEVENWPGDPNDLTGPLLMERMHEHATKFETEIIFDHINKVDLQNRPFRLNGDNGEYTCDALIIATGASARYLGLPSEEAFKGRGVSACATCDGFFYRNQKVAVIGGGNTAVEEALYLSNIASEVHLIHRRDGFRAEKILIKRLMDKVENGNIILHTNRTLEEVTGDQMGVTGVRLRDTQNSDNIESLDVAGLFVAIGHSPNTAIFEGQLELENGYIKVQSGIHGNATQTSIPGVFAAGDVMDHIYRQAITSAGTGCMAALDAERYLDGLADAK

| SMILES | IC50 [µM] |
| --- | --- |
| CC(C)n1[c]([Ag-][Cl])[n+](Cc2ccccn2)c2ccccc21 [1-Cl] | ~11 |
| CC(C)n1[c]([Ag-][I])[n+](Cc2ccccn2)c2ccccc21 [1-I] | ~6 |
| COCCn1[c]([Ag-][Cl])[n+](Cc2ccccn2)c2ccccc21 [2-Cl] | ~11 |
| COCCn1[c]([Ag-][I])[n+](Cc2ccccn2)c2ccccc21 [2-I] | ~6 |
